The structures appear in SMILES notation. Structures can show the parent of a compound that is named as a salt.

What is called melting point is the temperature, or range, at which the solid turns liquid. `C=CCN(c1nc(-c2ccc(OC)cc2Cl)c(C)s1)C(COC)c1ccccc1` (centres unmarked) (as salt: hydrochloride) (hydrate or solvate) [Example 23, Allyl-[4-(2-chloro-4-methoxyphenyl)-5-methylthiazol-2-yl]-(2-methoxy-1-phenylethyl)amine] registered a melting point of 70 °C.
In turn, `CC#CCN(c1nc(-c2ccc(OC)cc2Cl)c(C)s1)C(COC)c1ccccc1` (centres unmarked) (as salt: hydrochloride) (hydrate or solvate) [Example 24, But-2-ynyl-[4-(2-chloro-4-methoxyphenyl)-5-methylthiazol-2-yl]-[2-methoxy-1-phenylethyl]amine] had a melting point of 70 °C.
